In US20100069854A1, “Elastomeric Devices Containing Chlorhexidine/Fatty Acid Salts Made From Fatty Acids of 12 to 18 Carbons” (priority 2008, published 2010):
“Also recorded” adds a separate entry of the source.

Key:
[1] = test system: Candida albicans ATCC 10231; assay: Zone of inhibition assay with impregnated polyurethane foam discs; type: cell-based; conditions: for Zone of inhibition compared with the other salts (in words): impregnated polyurethane foam, after several daily transfers / over the 9 day assay
Protocol: To evaluate antimicrobial properties of polyurethane foam samples infused with the various chlorhexidine/fatty acid salts, a zone of inhibition assay was performed. In this assay, 1.4% (w/v) of chlorhexidine acetate, chlorhexidine caprate, chlorhexidine laurate, chlorhexidine myristate, chlorhexidine palmitate and chlorhexidine stearate solutions in methanol were prepared. A supply of 8 mm discs were punched out of a sheet of polyurethane foam (Rynel medical grade polyurethane foam) with biopsy punches (Miltex Kai). Several discs were placed in each of six 50 ml centrifuge tubes. Approximately 5 ml of each of the different methanol/chlorhexidine/fatty acid salt solutions was added to each respective tube. The discs were centrifuged for 5 minutes to remove any air bubbles and soaked for 1 hr to infuse the foam discs with the respective chlorhexidine/fatty acid salt. Infused discs were transferred to clean centrifuge tubes and vacuum dried at 25° C. for 24 hrs to remove any residual solvents. Initial concentrations of salts, impregnated into the punches, were determined by dissolving the impregnated foams and by high pressure liquid chromatography (HPLC) analysis using an Agilent Eclipse XDB-CN 3u 4.6×150 mm column with initial mobile phase=65% DI water/0.2% trifluoroacetic acid (TFA): 35% Acetonitrile/0.2% TFA. Chlorhexidine absorbance was read at 253 nm and concentration was calculated via a chlorhexidine calibration curve. […] To perform the zone of inhibition assay on the impregnated polyurethane foam discs, agar plates were prepared by mixing 11 g Mueller-Hinton cation-adjusted broth and 1.5 g agarose in 500 ml DI water. The agar was autoclaved for 15 minutes at 121° C., 15 psi. 10 ml of the still hot, liquid agar was pipetted onto petri dishes. The challenge organism, Candida albicans ATCC 10231, was cultivated in Trypticase soy broth, standard microbiological growth medium (TSB). Sterile cotton swabs were dipped into the undiluted culture and the plated agar was fully inoculated with swabs. The 8 mm polyurethane foam discs were transferred daily to a freshly inoculated agar for 9 days. The zone of inhibition (ZOI) was measured using calipers. Actual ZOI was measured by subtracting the diameter of the foam (when wet) from the zone measured and dividing by 2. The results are presented in Table 6, with a graphical representation of the ZOI in FIG. 2;

[2] = test system: Pseudomonas aeruginosa ATCC 27853; assay: Basic broth adherence assay on coated polyurethane tubes; type: cell-based
Protocol: The antimicrobial effectiveness of the coated samples was subjected to different durations of DI water extraction by basic broth adherence assay. For each chlorhexidine/fatty acid salt tested, 3 samples of coated tubing were prepared and assayed. To prepare the inoculum, a culture of Pseudomonas aeruginosa ATCC 27853 was used to challenge the coated polyurethane tubes and controls. The negative control used was a length of uncoated polyurethane tube. The challenge microorganism suspension was prepared as follows: approximately three colonies were removed from a secondary working culture plated on Trypticase Soy Agar (TSA) (BD-Falcon) with 5% sheep's blood and added to 10 ml of Trypticase Soy Broth (TSB). The vial was vortexed for approximately 30 seconds and incubated for 4 hours at 37° C. at 100 rpm. Following incubation, the vial was removed and vortexed. The optical density of the organism suspension was read. The inoculum was then diluted in TSB to a concentration of 5×10^4 colony forming units per milliliter (CFU/mL). This concentration was confirmed by the Miles and Misra drop count method.
The basic broth adherence assay was performed in a 96 well micro titer plate. To each well of the micro titer plate containing either a test article or a control, 900 μl of TSB was added. To this, 100 μl of the adjusted inoculum was added (Note: Due to the 1/10 dilution per well, the starting inoculum concentration of each organism was […] for Pseudomonas aeruginosa). The micro titer plates were then sealed via parafilm® around the edges and wrapped in foil to avoid evaporation of liquid and light contact with the samples. The plates were then placed inside a shaker incubator set at 37° C. and 100 rpm for 24 hours. Incubation at 37° C. then continued until the elapse of 7 days, 14 days, and 21 days, respectively, for each of the 3 samples prepared for each chlorhexidine/fatty acid salt.
At the completion of the respective incubation periods, the samples were rinsed, sonicated, the sonicate was plated and adherence was evaluated. More particularly, following incubation, all samples and controls were dip-rinsed twice in phosphate buffered saline (PBS) to remove the surrounding media. After rinsing, test articles were sonicated in micro titer plate wells containing 1 mL of Dey-Engley (DE) neutralizing broth (Difco). The sonication liquid was then serially diluted, and plated onto the surface of DE neutralizing agar. Plates were incubated at 37° C. for 24 to 48 hours and colonies were counted. Recovery counts were recorded as CFU/mL.

[3] = Rate of release of chlorhexidine/fatty acid salts from coated polyurethane tubes into DI water; type: physicochemical; conditions: for Cumulative release of the chlorhexidine/fatty acid salts from the coated polyurethane tubes: 1 cm coated tube in DI water, 37° C.
Protocol: A solution of each respective chlorhexidine/fatty acid salt was prepared and used to infuse a sample of elastomeric material. To perform the test, individual samples, 8 cm pieces of polyurethane tube containing a colorant, were surface dip coated in respective solutions of the chlorhexidine/fatty acid salts. The solutions were prepared as follows: 8.6 g of Tecoflex (Noveon, Cleveland, Ohio) was dissolved in 174 g of Tetrahydrofuran and methanol. 5.88 g of chlorhexidine acetate, chlorhexidine laurate, chlorhexidine myristate, chlorhexidine palmitate and chlorhexidine stearate were individually dissolved into the polymer-solvent mixture. The samples were immersed into the solvent-polymer-salt mixture and then dried at room temperature, evaporating the solvent. A polymeric coating was produced on the surface of the tubes. The amounts of chlorhexidine/fatty acid salt adhered per cm of the tube was measured (Table 2) by exhaustively extracting the salt and measuring UV absorbance at 253 nm relative to controls: For each of the samples, the rate of release of chlorhexidine/fatty acid salts into an aqueous solution was determined. To perform the rate of release test, 1 cm from each of the coated polyurethane tubes, were submerged in DeIonized (DI) water and incubated at 37° C. for a period of 28 days to determine the rate of release of the salts from the respective 1 cm samples of coated polyurethane tubing. The water was collected and replaced with fresh water after approximately 2 hours. The water was again collected and replaced with fresh water after the first day and every seven days thereafter. The amount of chlorhexidine/fatty acid salt in the collected water was measured with an Agilent 8453 UV-Vis Diode Array Detector with a manual setup using a cuvette w/path length of 1 cm. Chlorhexidine absorbance was read at 253 nm and concentration was calculated via a calibration curve developed using standards of 1, 5, 10, 20, 30, 35, and 40 μg/mL chlorhexidine acetate in DI Water. The percentage of chlorhexidine/fatty acid salt released from the sample into an aqueous media (percent release) was calculated according to the following equation: Percent release=(cumulative release at that time period/initial content)*100.

[4] = Day 1, daily transfer to fresh agar
[5] = Day 2, daily transfer to fresh agar
[6] = Day 3, daily transfer to fresh agar
[7] = Day 4, daily transfer to fresh agar
[8] = Day 7, daily transfer to fresh agar
[9] = Day 8, daily transfer to fresh agar
[10] = Day 9, daily transfer to fresh agar

| SMILES | ZOI produced by impregnated polyurethane foam punches against Candida albicans [1, 4] [mm] | ZOI produced by impregnated polyurethane foam punches against Candida albicans [1, 5] [mm] | ZOI produced by impregnated polyurethane foam punches against Candida albicans [1, 6] [mm] | ZOI produced by impregnated polyurethane foam punches against Candida albicans [1, 7] [mm] | ZOI produced by impregnated polyurethane foam punches against Candida albicans [1, 8] [mm] | ZOI produced by impregnated polyurethane foam punches against Candida albicans [1, 9] [mm] | ZOI produced by impregnated polyurethane foam punches against Candida albicans [1, 10] [mm] | Zone of inhibition compared with the other salts (in words) [1] | Log10 reduction of adhered Pseudomonas aeruginosa onto the surface of coated polyurethane tubes ([2]; 7 days) | Log10 reduction of adhered Pseudomonas aeruginosa onto the surface of coated polyurethane tubes ([2]; 21 days) | Cumulative release of the chlorhexidine/fatty acid salts from the coated polyurethane tubes ([3]; Day 1) [g] | Cumulative release of the chlorhexidine/fatty acid salts from the coated polyurethane tubes ([3]; Day 7) [g] | Cumulative release of the chlorhexidine/fatty acid salts from the coated polyurethane tubes ([3]; Day 14) [g] | Cumulative release of the chlorhexidine/fatty acid salts from the coated polyurethane tubes ([3]; Day 21) [g] | Cumulative release of the chlorhexidine/fatty acid salts from the coated polyurethane tubes ([3]; Day 28) [g] | other results |
| --- | --- | --- | --- | --- | --- | --- | --- | --- | --- | --- | --- | --- | --- | --- | --- | --- |
| CCCCCCCCCCCCCCCCCC(=O)O.CCCCCCCCCCCCCCCCCC(=O)O.N=C(NCCCCCCNC(=N)NC(=N)Nc1ccc(Cl)cc1)NC(=N)Nc1ccc(Cl)cc1 [Chlorhexidine Stearate, chlorhexidine distearate] | 11 | 17 | 16 | 13 | 14 | 8 | 8 | zones of inhibition that were smaller | 0 | 0 | 30 | 76 | 87 | 95 | 99 | Log10 reduction of adhered Pseudomonas aeruginosa onto the surface of coated polyurethane tubes ([2]; 14 days): 0; Inhibition of adherence / antimicrobial effect against Pseudomonas aeruginosa (in words) ([2]; coated polyurethane tubes compared to uncoated control): did not provide an antimicrobial effect beyond the first day; also recorded: did not inhibit adherence of the challenge organism; Percent release of the initial salt concentration from the coated sample ([3]; after 28 days (FIG. 1)): approximately 40% |
| CCCCCCCCCC(=O)O.CCCCCCCCCC(=O)O.N=C(NCCCCCCNC(=N)NC(=N)Nc1ccc(Cl)cc1)NC(=N)Nc1ccc(Cl)cc1 [Chlorhexidine Caprate, chlorhexidine caprate] | 14 | 18 | 18 | 10 | 7 | 9 | 7 | zones of inhibition that were smaller |  |  |  |  |  |  |  | Percent release of the initial salt concentration from the coated sample ([3]; after approximately 7 days (FIG. 1)): 70% |
| CCCCCCCCCCCCCC(=O)O.CCCCCCCCCCCCCC(=O)O.N=C(NCCCCCCNC(=N)NC(=N)Nc1ccc(Cl)cc1)NC(=N)Nc1ccc(Cl)cc1 [Chlorhexidine Myristate, chlorhexidine dimyristate] | 27 | 34 | 32 | 18 | 16 | 16 | 18 |  | 7 | 7 | 40 | 98 | 133 | 147 | 151 | Release from the coated sample over the test (in words) ([3]; FIG. 1, 28 days in DI water): continually released at an appreciable rate throughout the duration of the test; Amount released from the coated sample over the 7 day period ([3]; from 21 to 28 days): 4 µg |
